Each compound was assayed against T1, human S1P1 receptor (Homo sapiens, UniProt P21453) (assay: GTP y35S binding assay for S1P1 activity). Conditions: membranes of cells stably expressing the S1P1 receptor, agonist potency.
T1 construct: expressed in transfected cells; membranes used
Format: biochemical
Protocol: Compounds were synthesized and tested for S1P1 activity using the GTP y^35S binding assay. These compounds may be assessed for their ability to activate or block activation of the human S1P1 receptor in cells stably expressing the S1P1 receptor.
GTP y^35S binding was measured in the medium containing (mM) HEPES 25, pH 7.4, MgCl2 10, NaCl 100, dithitothreitol 0.5, digitonin 0.003%, 0.2 nM GTP y^35S, and 5 μg membrane protein in a volume of 150 μl. Test compounds were included in the concentration range from 0.08 to 5,000 nM unless indicated otherwise. Membranes were incubated with 100 μM […] for 30 min, and subsequently with 10 μM GDP for 10 min on ice. Drug solutions and membrane were mixed, and then reactions were initiated by adding GTP y^35S and continued for 30 min at 25° C. Reaction mixtures were filtered over Whatman GF/B filters under vacuum, and washed three times with 3 mL of ice-cold buffer (HEPES 25, pH7.4, MgCl2 10 and NaCl 100). Filters were dried and mixed with scintillant, and counted for ^35S activity using a ([…]. Agonist-induced GTP y^35S binding was obtained by subtracting that in the absence of agonist. Binding data were analyzed using a non-linear regression method. In case of antagonist assay, the reaction mixture contained 10 nM […] in the presence of test antagonist at concentrations ranging from 0.08 to 5000 nM.

T1 sequence (P21453 whole entry): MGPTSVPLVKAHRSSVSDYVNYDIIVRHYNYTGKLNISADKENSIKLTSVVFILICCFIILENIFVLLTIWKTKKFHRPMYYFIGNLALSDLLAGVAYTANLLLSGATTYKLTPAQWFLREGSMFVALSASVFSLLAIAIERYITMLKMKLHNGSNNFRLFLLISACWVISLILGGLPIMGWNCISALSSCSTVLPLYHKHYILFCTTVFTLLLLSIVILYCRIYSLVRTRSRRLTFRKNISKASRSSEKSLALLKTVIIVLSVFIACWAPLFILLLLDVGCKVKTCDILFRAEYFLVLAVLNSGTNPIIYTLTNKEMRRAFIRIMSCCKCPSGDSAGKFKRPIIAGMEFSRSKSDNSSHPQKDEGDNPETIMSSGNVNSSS

Row | EC50 [nM] | SMILES
1 | 58.4 | Cc1ccc(CC(=C=Cc2ccc(CNCCCP(=O)(O)O)cc2-c2cccs2)c2cc(F)cc(F)c2)cc1C [Compound 1, [3-({4-[3-(3,5-difluorophenyl)-4-(3,4-dimethylphenyl)buta-1,2-dien-1-yl]-3-(2-thienyl)benzyl}amino)propyl]phosphonic acid]
2 | 58.5 | Cc1ccc(CC(=C=Cc2ccc(CNCCCP(=O)(O)O)cc2-c2ccco2)c2cc(F)cc(F)c2)cc1C [Compound 2, [3-({4-[3-(3,5-Difluorophenyl)-4-(3,4-dimethylphenyl)buta-1,2-dien-1-yl]-3-(2-furyl)benzyl}amino)propyl]phosphonic acid]
3 | 1640 | CCc1cc(C=C=C(Cc2ccc(C)c(C)c2)c2cc(F)cc(F)c2)ccc1CNCCCP(=O)(O)O [Compound 3, [3-({4-[3-(3,5-Difluorophenyl)-4-(3,4-dimethylphenyl)buta-1,2-dien-1-yl]-2-ethylbenzyl}amino)propyl]phosphonic acid]

Reference: US20140135293A1, “ALLENE DERIVATIVES AS SPHINGOSINE 1-PHOSPHATE (S1P) RECEPTOR MODULATORS” (ALLERGAN, INC., priority 2012, published 2014)
